Consider one compound from article PMC9268243, “Metabolic Behaviors of Aconitum Alkaloids in Different Concentrations of Aconiti Lateralis Radix Praeparata and Effects of Aconitine in Healthy Human and Long QT Syndrome Cardiomyocytes” (Molecules, 2022).

One data set concerns normal hiPSC-CMs. The data set is described as follows: Impedance beating recordings (cell index, beat rate, amplitude), normal hiPSC-CMs. It is filed as cell-based, human. On the procedure:
(§1) HiPSCs derived from healthy controls (Cat: NC20010002; Lot.HJ210577NC22), or patients (Cat. NC20300002; Lot. CP210578NC04) diagnosed with LQT syndrome was maintained in HELP4004 (HELP, Nanjing, China) medium on Matrigel-coated (BD Bio science, San Jose, CA, USA) plates at 37 °C; with 5% CO2 (v/v).
(§2) The cardiomyocytes were seeded on Nanion CardioExcyte 96 Sensor Plates (NSP-96, Nanion Technologies, Munich, Germany) after 0.1% gelatin coating for 1 h. The initial volume was 200 μL per well and contained approximately […]. After seeding, the NSP-96 and CardioExcyte 96 were returned to the incubator. All cells were replaced with fresh medium 200 μL per well every 48 h and tested after 168 h. Cellular index, beat rate, base impedance and beat amplitude were monitored in this experiment.
(§3) Isoproterenol, nifedipine, and AC were purchased from Sigma-Aldrich, which were resolved in DMSO (Sigma-Aldrich, D2650). Drug compounds final concentration were AC (0.05, 0.5,5 μM), nifedipine (1 μM), isoproterenol (3 μM), respectively. Dilutions were prepared within 60 min of treatment. All the compound solutions were subjected to regular 10 min ultrasound and oscillations to ensure that compounds were completely dissolved. Equal amounts of DMSO (0.1%) were used as the vehicle controls.

In data set [1] the test system is LQT syndrome hiPSC-CMs. Briefly: Impedance beating recordings (cell index, beat rate, amplitude), LQT syndrome hiPSC-CMs. It is filed as cell-based, human. The method, then:
as §1, §2, §3

Data set [2] concerns LQT syndrome hiPSC-CMs. The data set is described as follows: Ca2+ imaging of calcium transients, LQT syndrome hiPSC-CMs. It is filed as cell-based, human. The note with it: cardiomyocytes of LQTS, 5 μM. The method, then: Dissociated day 30–33 post-differentiation hiPSC-CMs (healthy and LQT specific patient) were reseeded Matrigel-coated plate in HELP4004 (HELP) and were treated with 5 μM Fluo-3 AM and 0.02% Pluronic (Life Technologies) in DMEM/F12 (Gibco) for 60 min at 37 °C. Cells were washed with DMEM/F12 without fluorochrome solution afterwards for 30 min, replaced the solution with Tyrode’s solution. Ca^2+ imaging was conducted using Olympus IX71 confocal microscope (Olympus IX71, Tokyo, Japan) and analyzed using Olympus imaging software. Ca^2+ spontaneous transients were obtained using a single cell line scan mode at 37 °C.
as §3

For the next data set, the system named is rats. Particulars: cited from earlier work.
The test system of a further data set is CYP3A4. Particulars: in vivo; cited from earlier work.
Where [3] appears, read: LQT hiPSC-CMs, 0.05 μM, versus control group.

Like-named read-outs stand apart in the source and are kept apart here.

Turning to `CCN1C[C@]2(COC)[C@H](O)C[C@H](OC)[C@@]34[C@@H]5C[C@@]6(O)[C@H](OC(=O)c7ccccc7)[C@@H]5[C@@](OC(C)=O)([C@@H]([C@H](OC)[C@H]23)[C@@H]14)[C@@H](O)[C@@H]6OC` [AC, aconitine], in the data set on normal hiPSC-CMs (normal hiPSC-CMs), the amplitude result was “concentration-dependently decreased”. Moreover, the cell index result in the data set on normal hiPSC-CMs (normal hiPSC-CMs) is “no significant effect”; in the data set with LQT syndrome hiPSC-CMs [1] (LQTS hiPSC-CMs, 5.0 μM, between 5–30 min), “decreased the cell index”. Also, the cell beat rate result in the data set on normal hiPSC-CMs (normal hiPSC-CMs, 0.5 μM) is recorded as “faster after 12 h”. The cell contractility result is on record as “decreased cell contractility” with normal hiPSC-CMs (normal hiPSC-CMs, 0.5 μM); “significantly reduced” with normal hiPSC-CMs (normal hiPSC-CMs, 5 μM, very weak within 6 h after treatment); “decreased to zero” in the data set on LQT syndrome hiPSC-CMs [1] (LQT hiPSC-CMs, 5 μM, very weak within 30 h after treatment). Besides, the cell frequency result is reported as “increased cell frequency” in the data set on normal hiPSC-CMs (normal hiPSC-CMs, 0.5 μM) and “significantly increased” in the data set with LQT syndrome hiPSC-CMs [1] (LQT hiPSC-CMs, 0.5 μM). Besides, in the data set with normal hiPSC-CMs (normal hiPSC-CMs, 0.05, 0.5 and 5 μM, 48 h observation period), the cardiomyocyte death result was “None of the three concentrations (0.05, 0.5, and 5 μM) AC caused cardiomyocyte death”. Moreover, the contraction force result in the data set with normal hiPSC-CMs (normal hiPSC-CMs, versus control group, concentration not given) was “slightly lower”; in the data set on LQT syndrome hiPSC-CMs [1] (setting [3]), “lower contraction force”. Also, the contraction frequency entry with LQT syndrome hiPSC-CMs [1] (setting [3]) is recorded as “higher contraction frequency”. In addition, the contractility entry in the data set with LQT syndrome hiPSC-CMs [1] (LQT hiPSC-CMs, 0.5 μM) was “significantly increased”. Moreover, the myocardial cell death result with LQT syndrome hiPSC-CMs [1] (LQT hiPSC-CMs, three concentrations (0.05, 0.5, 5 μM), 48 h observation period) is “None of the three concentrations caused significant myocardial cell death”. Further, in the data set on LQT syndrome hiPSC-CMs [2], the “frequency of calcium transient” value is on record as “significantly increase”. Besides, the toxic cardiovascular effects entry in the data set with rats (oral 0.4 mg/kg) is “arrhythmia, lower heart rate, and blood pressure, were observed”; in the data set on rats (oral low-dose 0.1 mg/kg) it was “not found”. Further, the “main CYP 450 subtype for alkaloid metabolism” value in the data set on CYP3A4 is “CYP3A4”.
